Experimental findings from patent US20100215618A1, “NOVEL COMPOUNDS - 644” (Arrow Therapeutics Limited, priority 2009, published 2010) are described below.

Read-outs that look alike come from different tables or passages of the source.

Test [1] concerns HCV replicon cells Huh 9B (genotype 1b). As to the kind of experiment: 1b Replicon Assay (luciferase readout). The format is cell-based. The settings on record: Hepatitis C virus, Huh 9B replicon cells, 72 h, luciferase activity. How it is done: HCV replicon cells Huh 9B (ReBlikon), containing the firefly luciferase-ubiquitin-neomycin phosphotransferase fusion protein and EMCV-IRES driven HCV polyprotein with cell culture adaptive mutations.
Cells were cultured at 37° C./5% CO2 and split twice a week. G418 at 0.5 mg/ml was added to the culture medium but not the assay medium.
The culture medium consisted of DMEM with […] glucose and Glutamax (Gibco 61965-026) supplemented with 1× non-essential amino acids (Invitrogen 11140-035), 0.5 mg/ml G418 (Invitrogen 10131-027) and 10% Australian foetal calf serum (Invitrogen 10099-141).
Replicon cells were trypsinised and counted. Cells were diluted to 100,000 cells/ml and 100 μl used to seed one opaque white 96-well plate (for the replicon assay) and one flat-bottomed clear plate (for the tox assay) for every five compounds to be tested for IC50. Wells G12 and H12 were left empty in the clear plate as the blank. Plates were then incubated at 37° C./5% CO2 for 24 h.
On the following day compound dilutions were prepared in medium at twice their desired final concentration in a clear round bottomed plate. All dilutions have a final DMSO concentration of 1%.
Controls and compounds were transferred from the dilution plates to the assay plates (containing the cells) at 100 μl/well in duplicate wells.
Exception: no compound was added to wells A1 and A2 of either plate and 100 μl of 1% DMSO was added to these instead. Plates were then incubated at 37° C./5% CO2 for 72 h.
At the end of the incubation time, the cells in the white plate were washed in PBS (100 μL per well) and dried by tapping before addition of 204 per well of lysis buffer (25 mM tris-phosphate, 8 mM MgCl2, 1 mM DTT, 1% Triton X-100, 15% glycerol; pH to 7.8 using KH2PO4 prior to Triton X-100 and glycerol addition). Aliquots of substrate (23.5 mM beetle luciferin (Promega E1603), 26 mM ATP (Sigma O-2060) in […] Tris buffer pH 7.8) were stored at −80° C. Prior to use, required amount of luciferin was thawed and diluted 1:50 in luciferase assay buffer (20 mM Tricine (Sigma T-0377), 1.07 mM magnesium carbonate hydroxide (Sigma M-5671), 0.1 mM EDTA (Sigma E-5134), 2.67 mM MgSO4(BDH 101514Y), 33.3 mM dithiothreitol (Sigma 150460) pH 7.8).
After 5-60 min incubation in lysis buffer at room temperature, a plate was inserted into the luminometer and 100 μl luciferase assay reagent was added by the injector of the luminometer. The signal was measured using a 1 second delay followed by a 4 second measurement programme. The IC50, the concentration of the drug required for reducing the replicon level by 50% in relation to the untreated cell control value, was calculated from the plot of the percentage reduction of the luciferase activity vs. drug concentration.

The subject of test [2] is HCV genotype 1a replicon cells Htat2ANeo. In words: 1a Replicon Assay (cell-based anti-NS5a ELISA). The settings on record: Hepatitis C virus, 72 h. How it is done: HCV genotype la replicon cells Htat2ANeo (University of Texas), containing neomycin phosphotransferase fusion protein and EMCV-IRES driven HCV polyprotein with cell culture adaptive mutations, and control cells, Et2AN.
Cells were cultured at 37° C./5% CO2 and split twice a week. G418 at 0.5 mg/ml and Blastocidin at 2 mg/ml were added to the culture medium but not the assay medium.
The culture medium consisted of DMEM with […] glucose and Glutamax (Gibco 61965-026) supplemented with 1× non-essential amino acids (Invitrogen 11140-035), 0.5 mg/ml G418 (Invitrogen 10131-027), 2 mg/ml Blastocidin (PAA) and 10% is Australian foetal calf serum (Invitrogen 10099-141).
Replicon and control cells were trypsinised and counted. Replicon cells were diluted to 90,000 cells/ml and 100 μl of this used to seed columns 2-4, […] and 10-12 of a black, clear bottom 96-well plate for every three compounds to be tested for IC50. Control cells were diluted to 60,000 cells/ml and 100 μl of this used to seed columns 1, 5 and 9 of the plate. Well H1 was left empty as the blank. Plates were then incubated at 37° C./5% CO2 for 24 h.
On the following day compound dilutions were prepared in medium at twice their desired final concentration in a clear round bottomed plate.
Controls and compounds were transferred from the dilution plate to the assay plates (containing the cells) at 100 μl/well in quadruplicate wells, one well containing control cells and 3 wells containing replicon cells.
Exception: no compound was added to row H of the plate and 100 μl of 1% DMSO was added to these instead. Plates were then incubated at 37° C. with 5% CO2 for 72 h. At the end of the incubation time, any reduction in cell viability was assayed and a cell-based enzyme linked immunosorbent assay (ELISA) was performed. The media/compound was removed from all wells and replaced with 100 μl/well serum-free media and 20 μl/well Cell Titre Blue (Promega G8081). Following incubation at 37° C./5% CO2 for 2 h plates were read on a microplate fluorometer (Molecular Devices) using an excitation of 570 nm and an emission of 590 nm The TD50, the concentration of drug required to reduce 50% of Cell Titre Blue relative to the DMSO controls, was calculated by plotting the fluorescence at 590 nm after substraction of background against drug concentration.
The media/Cell Titre Blue was removed and plates washed in PBS and gently tapped dry before addition of 50 μL per well of 75% acetone/25% methanol mixture for 3 minutes. The fixative was then discarded and wells were washed with PBS before addition of 100 μl/well of blocking solution (2% non-fat dry milk and 0.05% Tween-20 in 0.85% NaCl). Plates were then incubated at 37° C. in a shaking incubator for 60 min. Blocking solution was discarded and 50 μl of mouse anti-NS5a antibody (Virostat 1877) at 1:100 dilution in blocking buffer was added to all wells. Plates were incubated at 37° C. in a shaking incubator for 90 min Antibody was then discarded and plates were washed 4 times by immersion in 0.85% NaCl/0.05% Tween-20. After washing plates were tapped dry gently and 50 μl of secondary antibody (Dako P0260 Rabbit anti-mouse horseradish peroxidase) at 1:1000 dilution in blocking buffer was added to the wells. Plates were incubated at 37° C. in a shaking incubator for 60 min. Antibody was discarded and plates were washed 6 times by immersion in 0.85% NaCl/0.05% Tween-20 and once in PBS. Finally, 50 μl of substrate (SigmaFast ortho-phenylene diamine dihydrochloride (OPD)) was added per well and the colorimetric reaction was allowed to proceed in the dark for 5 to 15 minutes depending on the strength or the signal. The reaction was stopped by addition of 25 μl/well of 20% sulphuric acid. Plates were read on the SpectraMax microplate reader at 490 nm fixed wavelength. […]
Background: A replicon is a self-replicating genome or part of one, used to study replication in cells.

[3] abbreviates: read-out: pIC50 1b Replicon (converted).
Where [4] appears, read: read-out: pIC50 1a Replicon (converted).

For `CC(C)(C)OC(=O)NCC(=O)N1CCC[C@H]1c1ncc(-c2ccc(-c3ccc(C(=O)Nc4ccc(CN5CCS(=O)(=O)CC5)cc4)cc3)cc2)[nH]1` [Example 12, tert-Butyl N-[2-[(2S)-2-[5-[4-[4-[[4-[(1,1-dioxo-1,4-thiazinan-4-yl)methyl]phenyl]carbamoyl]phenyl]phenyl]-1H-imidazol-2-yl]pyrrolidin-1-yl]-2-oxo-ethyl]carbamate], the IC50 was 106 nM in test [1] (read-out: HCV IC50 1b Replicon), 105 nM in test [1] (setting [3]), 164 nM in test [2] (read-out: HCV IC50 Elisa 1a) and 162 nM in test [2] (setting [4]).
With `CCN(CC)[C@@H](C(=O)N1CCC[C@H]1c1ncc(-c2cccc(-c3ccc(C(=O)Nc4ccc(CN5CCS(=O)(=O)CC5)cc4)cc3)c2)[nH]1)c1ccccc1` [Example 38, 4-[3-[2-[(2S)-1-[(2R)-2-(diethylamino)-2-phenyl-acetyl]pyrrolidin-2-yl]-1H-imidazol-5-yl]phenyl]-N-[4-[(1,1-dioxo-1,4-thiazinan-4-yl)methyl]phenyl]benzamide], the IC50 is 2.87 nM in test [1] (read-out: HCV IC50 1b Replicon), 2.88 nM in test [1] (setting [3]), 314 nM in test [2] (read-out: HCV IC50 Elisa 1a) and 316 nM in test [2] (setting [4]).
Turning to `CN(C)[C@@H](C(=O)N1CCC[C@H]1c1ncc(-c2cccc(-c3ccc(C(=O)Nc4ccc(CN5CCS(=O)(=O)CC5)cc4)cc3)c2)[nH]1)c1ccccc1` [Example 39, 4-[3-[2-[(2S)-1-[(2R)-2-(dimethylamino)-2-phenyl-acetyl]pyrrolidin-2-yl]-1H-imidazol-5-yl]phenyl]-N-[4-[(1,1-dioxo-1,4-thiazinan-4-yl)methyl]phenyl]benzamide], the IC50 in test [1] (read-out: HCV IC50 1b Replicon) was 4.81 nM; in test [1] (setting [3]) it was 4.79 nM; in test [2] (read-out: HCV IC50 Elisa 1a), 1100 nM; in test [2] (setting [4]), 1100 nM.
Turning to `CCCS(=O)(=O)N1CCN(Cc2ccc(NC(=O)c3ccc(-c4ccc(-c5cnc([C@@H]6CCCN6C(=O)[C@H](C)NC(=O)OC)[nH]5)cc4)cc3)cc2)CC1` [Example 41, Methyl N-[(1S)-1-methyl-2-oxo-2-[(2S)-2-[5-[4-[4-[[4-[(4-propylsulfonylpiperazin-1-yl)methyl]phenyl]carbamoyl]phenyl]phenyl]-1H-imidazol-2-yl]pyrrolidin-1-yl]ethyl]carbamate], the IC50 in test [1] (read-out: HCV IC50 1b Replicon) was 1.15 nM; in test [1] (setting [3]) it was 1.15 nM; in test [2] (read-out: HCV IC50 Elisa 1a), 47 nM; in test [2] (setting [4]), 46.8 nM.
Consider `CCCS(=O)(=O)N1CCN(Cc2ccc(NC(=O)c3ccc(-c4ccc(-c5cnc([C@@H]6CCCN6C(=O)[C@@H](NC(=O)OC)c6ccccc6)[nH]5)cc4)cc3)cc2)CC1` [Example 42, Methyl N-[(1S)-2-oxo-1-phenyl-2-[(2S)-2-[5-[4-[4-[[4-[(4-propylsulfonylpiperazin-1-yl)methyl]phenyl]carbamoyl]phenyl]phenyl]-1H-imidazol-2-yl]pyrrolidin-1-yl]ethyl]carbamate], for which the IC50 in test [1] (read-out: HCV IC50 1b Replicon) was 0.05 nM; in test [1] (setting [3]) it was 0.0537 nM; in test [2] (read-out: HCV IC50 Elisa 1a), 97.4 nM; in test [2] (setting [4]) it was 97.7 nM.
With `CCCS(=O)(=O)N1CCN(Cc2ccc(NC(=O)c3ccc(-c4ccc(-c5cnc([C@@H]6CCCN6C(=O)[C@H](NC(=O)OC)c6ccccc6)[nH]5)cc4)cc3)cc2)CC1` [Example 43, Methyl N-[(1R)-2-oxo-1-phenyl-2-[(2S)-2-[5-[4-[4-[[4-[(4-propylsulfonylpiperazin-1-yl)methyl]phenyl]carbamoyl]phenyl]phenyl]-1H-imidazol-2-yl]pyrrolidin-1-yl]ethyl]carbamate], the IC50 in test [1] (read-out: HCV IC50 1b Replicon) was 0.05 nM; in test [1] (setting [3]), 0.055 nM; in test [2] (read-out: HCV IC50 Elisa 1a) it was 77.7 nM; in test [2] (setting [4]), 77.6 nM.
For `CCCS(=O)(=O)N1CCN(Cc2ccc(NC(=O)c3ccc(-c4ccc(-c5cnc([C@@H]6CCCN6C(=O)[C@@H](c6ccccc6)N(CC)CC)[nH]5)cc4)cc3)cc2)CC1` [Example 44, 4-[4-[2-[(2S)-1-[(2R)-2-(diethylamino)-2-phenyl-acetyl]pyrrolidin-2-yl]-1H-imidazol-5-yl]phenyl]-N-[4-[(4-propylsulfonylpiperazin-1-yl)methyl]phenyl]benzamide] the same measures were 0.01 nM, 0.0145 nM, 50.5 nM and 50.1 nM.
The like results for `CCCS(=O)(=O)N1CCN(Cc2ccc(NC(=O)c3ccc(-c4ccc(-c5cnc([C@@H]6CCCN6C(=O)[C@@H](c6ccccc6)N(C)C)[nH]5)cc4)cc3)cc2)CC1` [Example 45, 4-[4-[2-[(2S)-1-[(2R)-2-(dimethylamino)-2-phenyl-acetyl]pyrrolidin-2-yl]-1H-imidazol-5-yl]phenyl]-N-[4-[(4-propylsulfonylpiperazin-1-yl)methyl]phenyl]benzamide] were, in that order, 0.03 nM, 0.0263 nM, 79.5 nM and 79.4 nM.
As to `COC(=O)N[C@H](C(=O)N1CCCC[C@H]1c1ncc(-c2ccc(-c3ccc(C(=O)Nc4ccc(CN5CCS(=O)(=O)CC5)cc4)cc3)cc2)[nH]1)C(C)C` [Example 50, methyl N-[(1S)-1-[(2S)-2-[5-[4-[4-[[4-[(1,1-dioxo-1,4-thiazinan-4-yl)methyl]phenyl]carbamoyl]phenyl]phenyl]-1H-imidazol-2-yl]piperidine-1-carbonyl]-2-methyl-propyl]carbamate], the IC50 was 2.98 nM in test [1] (read-out: HCV IC50 1b Replicon), 2.95 nM in test [1] (setting [3]), 28.2 nM in test [2] (read-out: HCV IC50 Elisa 1a) and 28.2 nM in test [2] (setting [4]).
